Measurements reported in the NIST ThermoML archive (doi:10.1021/je900852t).
± gives the expanded uncertainty stated by the source.

Conditions: Crystal; visual observation

Normal melting temperature: 215 ± 1 °C
Compound: c1ccc2cc3ccccc3cc2c1 [anthracene]
